Source: ChEMBL document CHEMBL1138457, “Design and synthesis of an orally bioavailable and selective peptide epoxyketone proteasome inhibitor (PR-047)” (J Med Chem, 2009)
pIC50: −log10 of the molar value.

Legend:
[1] = Inhibition of chymotrypsin-like activity of human 20S proteasome by spectrofluorimetry
[2] = Cytotoxicity against multidrug resistance transporter expressing doxorubicin resistant human MESSA cells assessed as cell viability after 72 hrs by CellTiter-Glo luminescent assay; assay type: functional, cell-based; details: MES-SA
[3] = Cytotoxicity against human MESSA cells assessed as cell viability after 72 hrs by CellTiter-Glo luminescent assay; assay type: functional, cell-based; details: MES-SA
[4] = Inhibition of chymotrypsin-like activity of 20S proteasome in human MOLT4 cells after 1 hr by […]; assay type: cell-based; details: MOLT-4, 1 h

SMILES	pIC50 [1]	pIC50 [2]	pIC50 [3]	pIC50 [4]
CC(C)C[C@H](NC(=O)c1cc[nH]n1)C(=O)N[C@@H](Cc1ccccc1)C(=O)N[C@@H](CC(C)C)C(=O)[C@@]1(C)CO1	7.44	< 6.00	6.96	6.73
CC(C)C[C@H](NC(=O)c1nccn1C)C(=O)N[C@@H](Cc1ccccc1)C(=O)N[C@@H](CC(C)C)C(=O)[C@@]1(C)CO1	6.91	6.79	7.17	6.79
CC(C)C[C@H](NC(=O)c1ccn(C)n1)C(=O)N[C@@H](Cc1ccccc1)C(=O)N[C@@H](CC(C)C)C(=O)[C@@]1(C)CO1	7.12	6.69	6.86	6.54
CC(C)C[C@H](NC(=O)[C@@H]1CCCO1)C(=O)N[C@@H](Cc1ccccc1)C(=O)N[C@@H](CC(C)C)C(=O)[C@@]1(C)CO1	7.38	6.80	6.89	6.74
CC(C)C[C@H](NC(=O)[C@H](Cc1ccccc1)NC(=O)CN1CCOCC1)C(=O)[C@@]1(C)CO1	< 6.00	< 6.00	< 6.00	< 6.00
CC(C)C[C@H](NC(=O)c1ncc[nH]1)C(=O)N[C@@H](Cc1ccccc1)C(=O)N[C@@H](CC(C)C)C(=O)[C@@]1(C)CO1	6.97	< 6.00	6.87	6.57
CC(C)C[C@H](NC(=O)c1cnccn1)C(=O)N[C@@H](Cc1ccccc1)C(=O)N[C@@H](CC(C)C)C(=O)[C@@]1(C)CO1	6.12	< 6.00	< 6.00	< 6.00
CC(C)C[C@H](NC(=O)[C@H]1CCCO1)C(=O)N[C@@H](Cc1ccccc1)C(=O)N[C@@H](CC(C)C)C(=O)[C@@]1(C)CO1	7.47	6.96	7.16	6.81

Compounds with a higher pIC50 [1], results first:

pIC50 [1]	SMILES	pIC50 [2]	pIC50 [3]	pIC50 [4]
7.89	Cc1cc(NC(=O)N[C@@H](CC(C)C)C(=O)N[C@@H](Cc2ccccc2)C(=O)N[C@@H](CC(C)C)C(=O)[C@@]2(C)CO2)no1	< 6.00	6.74	7.33
7.92	CC(C)C[C@H](NC(=O)c1ccnnc1)C(=O)N[C@@H](Cc1ccccc1)C(=O)N[C@@H](CC(C)C)C(=O)[C@@]1(C)CO1	< 6.00	7.74	7.30
8.00	CC(C)C[C@H](NC(=O)c1cccs1)C(=O)N[C@@H](Cc1ccccc1)C(=O)N[C@@H](CC(C)C)C(=O)[C@@]1(C)CO1	6.92	7.47	7.40
7.70	CC(C)C[C@H](NC(=O)c1ccncc1)C(=O)N[C@@H](Cc1ccccc1)C(=O)N[C@@H](CC(C)C)C(=O)[C@@]1(C)CO1	< 6.00	7.48	7.26
8.92	COCc1cc(C(=O)N[C@@H](CC(C)C)C(=O)N[C@@H](Cc2ccccc2)C(=O)N[C@@H](CC(C)C)C(=O)[C@@]2(C)CO2)no1	7.55	7.64	8.09
8.24	CC(C)C[C@H](NC(=O)c1ccno1)C(=O)N[C@@H](Cc1ccccc1)C(=O)N[C@@H](CC(C)C)C(=O)[C@@]1(C)CO1	7.09	7.24	7.19
7.57	CC(C)C[C@H](NC(=O)c1cnco1)C(=O)N[C@@H](Cc1ccccc1)C(=O)N[C@@H](CC(C)C)C(=O)[C@@]1(C)CO1	6.30	6.80	7.08
8.13	CC(C)C[C@H](NC(=O)c1ccon1)C(=O)N[C@@H](Cc1ccccc1)C(=O)N[C@@H](CC(C)C)C(=O)[C@@]1(C)CO1	6.91	7.14	7.30
8.20	CC(C)C[C@H](NC(=O)c1cc(C(C)C)on1)C(=O)N[C@@H](Cc1ccccc1)C(=O)N[C@@H](CC(C)C)C(=O)[C@@]1(C)CO1	7.52	7.20	7.77
